Each compound was assayed against T1, hFSP1 (Homo sapiens, UniProt Q9BRQ8) (assay: Dose-response of screening hits, cell survival by Aquabluer in hFSP1 GPX4 KO cells). Conditions: FSP1 overexpressing cells lacking GPX4.
T1 construct: expressed in transfected cells; host or cells: Gpx4 KO isogenic fibroblasts (Pfa1, mouse) overexpressing hFSP1
T1 sequence (Q9BRQ8 1-373): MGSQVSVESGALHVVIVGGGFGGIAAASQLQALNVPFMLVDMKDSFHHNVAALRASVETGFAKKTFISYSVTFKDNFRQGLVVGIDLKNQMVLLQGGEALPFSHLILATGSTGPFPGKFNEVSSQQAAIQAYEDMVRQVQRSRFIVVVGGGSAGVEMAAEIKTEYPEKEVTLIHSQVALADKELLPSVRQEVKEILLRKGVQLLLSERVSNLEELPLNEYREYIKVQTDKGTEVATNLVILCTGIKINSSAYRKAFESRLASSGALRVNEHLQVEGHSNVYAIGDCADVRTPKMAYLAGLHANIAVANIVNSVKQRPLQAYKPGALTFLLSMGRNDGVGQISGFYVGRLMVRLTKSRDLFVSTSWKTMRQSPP
Format: cell-based
Protocol: To identify new small molecule inhibitors that induce ferroptosis in FSP1 overexpressing cells lacking GPX4, hFSP1 GPX4 KO as well as FSP1 GPX4 wild type (WT) isogenic fibroblasts were screened using a subtractive high throughput screening (HTS) approach. As such, both cell lines were plated in parallel and screened against HMGU libraries at a fixed concentration of 10 μM. Cell survival was evaluated using the LIVE/DEAD assay Aquabluer. The percentage (%) of viable cells was determined for both wild type (WT) and knockout (KO) cell lines. Hits were considered as compounds that induce ferroptosis in KO but not in WT cells. Subsequently, positive hits were assayed in a dose-response manner to establish EC50 values of respective compounds (see Table 2).

Structure (SMILES) | EC50 [nM]
CCOc1ccc(CC(=O)Nc2ccc(-n3c(C)nc4ccccc4c3=O)cc2)cc1 [Compound 2] | > 1000
COc1cc(C(=O)Nc2ccc(-n3c(C)nc4ccccc4c3=O)cc2)cc(OC)c1OC [Compound 3] | > 1000
COc1ccc(CC(=O)Nc2ccc(-n3c(C)nc4ccccc4c3=O)cc2)cc1 [Compound 4] | > 1000
COc1ccc(CC(=O)Nc2cccc(-n3c(C)nc4ccccc4c3=O)c2)cc1 [Compound 5] | > 1000
COc1cc(C(=O)Nc2cccc(-n3c(C)nc4ccccc4c3=O)c2)cc(OC)c1OC [Compound 6] | < 1000
COc1ccc(CC(=O)Nc2ccc(-n3c(C)nc4ccccc4c3=O)cc2)cc1Cl [Compound 7] | < 1000
COc1cccc(CC(=O)Nc2ccc(-n3c(C)nc4ccccc4c3=O)cc2)c1 [Compound 8] | > 1000
COc1cc(CC(=O)Nc2ccc(-n3c(C)nc4ccccc4c3=O)cc2C)cc(OC)c1OC [Compound 9] | < 1000
CCOc1cc(C(=O)Nc2ccc(-n3c(C)nc4ccccc4c3=O)cc2)cc(OCC)c1OCC [Compound 10] | < 1000
COc1ccc(CC(=O)Nc2ccc3nc(C)n(-c4ccc(F)cc4)c(=O)c3c2)cc1OC [Compound 11] | > 1000
CCOc1ccc(CC(=O)Nc2ccc(-n3c(C)nc4ccccc4c3=O)cc2C)cc1 [Compound 12] | < 1000
Cc1ccc(CC(=O)Nc2ccc(-n3c(C)nc4ccccc4c3=O)cc2)cc1 [Compound 14] | < 1000
Cc1cccc(CC(=O)Nc2ccc(-n3c(C)nc4ccccc4c3=O)cc2)c1 [Compound 15] | < 1000
Cc1ccccc1CC(=O)Nc1ccc(-n2c(C)nc3ccccc3c2=O)cc1 [Compound 16] | > 1000
Cc1nc2ccccc2c(=O)n1-c1ccc(NC(=O)Cc2ccc(F)cc2)cc1 [Compound 17] | > 1000
Cc1nc2ccccc2c(=O)n1-c1ccc(NC(=O)Cc2ccc(Cl)cc2)cc1 [Compound 18] | < 1000
CCC(C(=O)Nc1ccc(-n2c(C)nc3ccccc3c2=O)cc1)c1ccccc1 (stereo not drawn) [Compound 19] | < 1000
Cc1nc2ccccc2c(=O)n1-c1ccc(NC(=O)Cc2ccccc2Cl)cc1 [Compound 20] | > 1000
Cc1ccc(CC(=O)Nc2ccc(-n3c(C)nc4ccccc4c3=O)cc2C)cc1 [Compound 21] | > 1000
Cc1cccc(CC(=O)Nc2ccc(-n3c(C)nc4ccccc4c3=O)cc2C)c1 [Compound 22] | > 1000
Cc1ccccc1CC(=O)Nc1ccc(-n2c(C)nc3ccccc3c2=O)cc1C [Compound 23] | > 1000
Cc1cc(-n2c(C)nc3ccccc3c2=O)ccc1NC(=O)Cc1ccc(F)cc1 [Compound 24] | > 1000
COc1ccc(CC(=O)Nc2ccc(-n3c(C)nc4ccccc4c3=O)cc2C)cc1 [Compound 25] | > 1000
Cc1cc(-n2c(C)nc3ccccc3c2=O)ccc1NC(=O)Cc1ccc(Cl)cc1 [Compound 26] | < 1000
Cc1nc2ccccc2c(=O)n1-c1ccc(NC(=O)Cc2c(F)cccc2Cl)cc1 [Compound 27] | < 1000
COc1cccc(CC(=O)Nc2ccc(-n3c(C)nc4ccccc4c3=O)cc2C)c1 [Compound 28] | > 1000

Structure (SMILES) | EC50 [nM]
Cc1cc(-n2c(C)nc3ccccc3c2=O)ccc1NC(=O)Cc1ccccc1F [Compound 29] | > 1000
Cc1cc(-n2c(C)nc3ccccc3c2=O)ccc1NC(=O)Cc1ccccc1Cl [Compound 30] | > 1000
COc1ccc(CC(=O)Nc2ccc(-n3c(C)nc4ccccc4c3=O)cc2)c(Cl)c1 [Compound 31] | < 1000
Cc1cc(-n2c(C)nc3ccccc3c2=O)ccc1NC(=O)Cc1c(F)cccc1Cl [Compound 32] | < 1000
COc1ccc(CC(=O)Nc2ccc(-n3c(C)nc4ccccc4c3=O)cc2C)cc1Cl [Compound 33] | < 1000
COc1ccc(CC(=O)Nc2ccc(-n3c(C)nc4ccccc4c3=O)cc2C)c(Cl)c1 [Compound 34] | < 1000
COc1cc(CC(=O)Nc2ccc(-n3c(C(F)(F)F)nc4ccccc4c3=O)cc2)cc(OC)c1OC [Compound 40] | < 1000
COc1cc(CC(=O)Nc2ccc(-n3c(C(F)F)nc4ccccc4c3=O)cc2)cc(OC)c1OC [Compound 41] | > 1000
COc1cc(CC(=O)Nc2ccc(-n3c(CF)nc4ccccc4c3=O)cc2)cc(OC)c1OC [Compound 42] | < 1000
COc1cc(CC(=O)Nc2ccc(-n3c(C)nc4cc(F)c(F)cc4c3=O)cc2)cc(OC)c1OC [Compound 46] | < 100
COc1cc(CC(=O)Nc2ccc(-n3c(C)nc4cnccc4c3=O)cc2)cc(OC)c1OC [Compound 49] | > 1000
COc1cc(CC(=O)Nc2ccc(-n3c(C)nc4ccncc4c3=O)cc2)cc(OC)c1OC [Compound 50] | > 1000
COc1cc(CC(=O)Nc2cnc(-n3c(C)nc4ccccc4c3=O)cn2)cc(OC)c1OC [Compound 63] | > 1000
Cc1nc2ccccc2c(=O)n1-c1ccc(NC(=O)Cc2ccc3c(c2)CCC3)cc1 [Compound 64] | < 100
COc1cc(CC(=O)Nc2ccc(-n3c(C)nc4sccc4c3=O)cc2)cc(OC)c1OC [Compound 69] | < 1000
COc1cc(CC(=O)Nc2ccc(-n3c(CO)nc4ccccc4c3=O)cc2)cc(OC)c1OC [Compound 71] | > 1000
Cc1nc2ccccc2c(=O)n1-c1ccc(NS(=O)(=O)Cc2ccccc2)cc1 [Compound 72] | > 1000
Cc1nc2ccccc2c(=O)n1-c1ccc(N(C)S(=O)(=O)Cc2ccccc2)cc1 [Compound 73] | > 1000
Cc1cc(CC(=O)Nc2ccc(-n3c(C)nc4cc(F)c(F)cc4c3=O)cc2)cc(C)c1C [Compound 75] | < 100
Cc1nc2cc(F)c(F)cc2c(=O)n1-c1ccc(NC(=O)Cc2cc(F)c(F)c(F)c2)cc1 [Compound 76] | < 1000
Cc1nc2cc(F)c(F)cc2c(=O)n1-c1ccc(NC(=O)Cc2ccc3c(c2)CCC3)cc1 [Compound 77] | < 100
Cc1nc2cc(F)c(F)cc2c(=O)n1-c1ccc(NC(=O)Cc2ccccn2)cc1 [Compound 83] | > 1000
Cc1nc2cc(F)c(F)cc2c(=O)n1-c1ccc(NC(=O)Cc2cccnc2)cc1 [Compound 84] | > 1000
Cc1cc(CC(=O)Nc2ccc(-n3c(C)nc4cc(F)c(F)cc4c3=O)cc2)cc(C)n1 [Compound 85] | > 1000
Cc1nc2cc(F)c(F)cc2c(=O)n1-c1ccc(NC(=O)Cc2cc(C(F)(F)F)cc(C(F)(F)F)c2)cc1 [Compound 86] | < 100

Reference: patent US20260209218A1, “3-PHENYLQUINAZOLINONES AS NOVEL ANTI-CANCER THERAPY” (HELMHOLTZ ZENTRUM MÜNCHEN - DEUTSCHES FORSCHUNGSZENTRUM FÜR …, priority 2022, published 2026)
